Patent US20080306044A1, “SPIROBENZOAZEPANES AS VASOPRESSIN ANTAGONISTS” (priority 2007, published 2008)

How the values were obtained:
human V1a receptor [1] = target: T1, human V1a receptor (Homo sapiens, UniProt P37288); experiment: cell-based
T1 construct: expressed in transfected cells
Procedure: The V1a receptor is a G-protein coupled receptor, which upon activation triggers an increase in intracellular calcium mobilization. To evaluate compounds for their functional V1a receptor activity, HEK-293 cells were transfected with the human V1a receptor (V1a-HEK cells). HEK-293 cells were grown in DMEM (Dulbecco's modified Eagle Media) supplemented with 10% FBS and glutamine. HEK-cells were passed biweekly by trypsinization and seeded into 96 well plates at 33,000 cells per well. HEK-293 cells were transfected with human V1a receptor DNA using DMRIE-C reagent from Life Technologies (Carlsbad, Calif.). Stable lines were generated by selecting cells grown in culture media containing geneticin. After growing in Packard Clear-View black 96 well plates for 4-6 days, V1a-HEK cells were loaded with the calcium-sensitive fluorescence dye, FLUO-3 AM. Changes in intracellular calcium mobilization were measured by quantitating intracellular fluorescence using FLIPR (Fluorometric Imaging Plate Reader; Molecular Devices, Sunnyvale, Calif.). Test compounds were first added to the cells and the resulting changes in fluorescence measured to detect receptor agonistic activity. Five minutes later the cells were challenged with vasopressin to test compounds for their antagonistic activity. Receptor antagonists inhibit the ability of vasopressin to stimulate increases in intracellular fluorescence.

human V1a receptor [2] = target: T1, human V1a receptor; experiment: In-vitro binding assay (3H-arginine-8-vasopressin), V1a; details: for IC50: membrane containing human V1a receptor, 3H-arginine-8-vasopressin 0.65-0.75 nM
Procedure: (§1) Assay buffer is 50 mM Tris-Cl, 5 mM MgCl2, 0.1% BSA (pH 7.5) containing 5 μg/mL of aprotinin, leupeptin, pepstatin, 50 μg/mL bacitracin, and 1 mM Pefabloc (4-(2-aminoethyl)-benzenesulfonyl fluoride, hydrochloride manufactured by Roche Diagnostics Corporation, Indianapolis, Ind. and distributed by Boehringer Mannheim). H3 vasopressin is ^3H-arginine-8-vasopressin (NEN Life Sciences, Boston, Mass.; 68.5 Ci/mmol, final concentration in assay is 0.65-0.75 nM). Into the wells of a 96-well round bottom polypropylene plates are added buffer, test compound, membrane (containing human V1a or V2 receptor), and H3 vasopressin. The reaction plates are allowed to sit at room temperature for one hour. The samples are filtered through Unifilter GF/C plates (PerkinElmer Life Sciences, Boston, Mass.) presoaked in 0.3 polyethyleneimine. The plates are washed 5 times with cold physiological saline containing 0.05% Tween 20. After drying, the bottom of the filter plates are sealed and 0.025 mL of Microscint-20 (Packard Instrument Co, Meriden, Conn.) is added to each filter. The top of the plate is sealed, and the plate is counted. Non-specific binding is determined by the addition of 1.25 μM arginine-8-vasopressin in those wells.
(§2) The % inhibition for the test results was calculated according to the formula: […]
Where an IC50 value was not obtained, the percent inhibition values are shown in parentheses (*) and were obtained at a test concentration of 0.2 μM.

human V2 receptor [3] = target: T2, human V2 receptor (Homo sapiens, UniProt P30518); experiment: In-vitro binding assay (3H-arginine-8-vasopressin), V2; details: for IC50: membrane containing human V2 receptor, 3H-arginine-8-vasopressin 0.65-0.75 nM; for inhibition at 0.2 µM: test concentration of 0.2 μM, read-out: V2 binding percent inhibition (in parentheses, where an IC50 value was not obtained)
Procedure: as §1, with “H3 vasopressin is ^3H-arginine-8-vasopressin (NEN Life Sciences, Boston, Mass.; 68.5 Ci/mmol, final concentration in assay is 0.65-0.75 nM).” left out, “counted.” for “counted. Non-specific binding is determined by the addition of 1.25 μM arginine-8-vasopressin in those wells.”
as §2

human V2 receptor [4] = target: T2, human V2 receptor; experiment: V2 vasopressin receptor functional activity (cAMP accumulation); type: cell-based; parameters: expressed in transfected cells; host or cells: HEK-293; details: V2-HEK cells; block of vasopressin-stimulated cAMP accumulation; read-out: V2 (functional) IC50
Procedure: The V2 receptor is also a G-protein coupled receptor which when activated induces an increase in cAMP turnover. Antagonism against the V2 receptor is determined by measuring cAMP accumulation in transfected HEK-293 cells expressing the human V-2 receptor (V2-HEK cells). Compounds are tested for their ability to block the stimulatory effects of vasopressin on cAMP accumulation. The cell content of cAMP is measured by radioimmunoassay using NEN flashplates.

[5] = V1 (functional) IC50, V1a-HEK cells, inhibition of vasopressin-stimulated intracellular calcium mobilization

T1 sequence (P37288 whole entry): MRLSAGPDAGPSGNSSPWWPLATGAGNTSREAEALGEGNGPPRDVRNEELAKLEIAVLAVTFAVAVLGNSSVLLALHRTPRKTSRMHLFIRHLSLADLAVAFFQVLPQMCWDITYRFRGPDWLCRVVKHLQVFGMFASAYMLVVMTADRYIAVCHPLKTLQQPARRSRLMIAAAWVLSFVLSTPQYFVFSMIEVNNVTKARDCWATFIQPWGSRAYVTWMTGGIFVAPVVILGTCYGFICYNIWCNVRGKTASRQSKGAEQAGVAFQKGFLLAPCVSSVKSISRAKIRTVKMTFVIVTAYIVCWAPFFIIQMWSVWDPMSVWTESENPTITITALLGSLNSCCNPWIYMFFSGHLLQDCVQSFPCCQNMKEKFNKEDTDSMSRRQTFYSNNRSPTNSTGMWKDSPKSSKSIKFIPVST
T2 sequence (P30518 whole entry): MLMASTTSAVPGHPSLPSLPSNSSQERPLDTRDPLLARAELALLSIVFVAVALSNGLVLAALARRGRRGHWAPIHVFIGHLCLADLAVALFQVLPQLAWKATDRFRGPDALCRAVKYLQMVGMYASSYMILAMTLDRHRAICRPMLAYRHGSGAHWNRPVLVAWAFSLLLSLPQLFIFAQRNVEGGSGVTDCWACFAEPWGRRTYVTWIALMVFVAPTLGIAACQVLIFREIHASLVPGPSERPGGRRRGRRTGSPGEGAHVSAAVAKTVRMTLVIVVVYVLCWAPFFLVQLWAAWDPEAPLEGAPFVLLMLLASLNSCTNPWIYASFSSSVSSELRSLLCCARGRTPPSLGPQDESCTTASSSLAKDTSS

Row | Compound | IC50 (human V1a receptor [1]; [5]) [nM] | IC50 (human V1a receptor [2]) [nM] | IC50 (human V2 receptor [3]) [nM] | IC50 (human V2 receptor [4]) [nM] | IC50 (human V1a receptor [1]) [nM] | inhibition at 0.2 µM (human V1a receptor [2]; test concentration of 0.2 μM, read-out: V1a binding percent inhibition (in parentheses, where an IC50 value was not obtained)) [%] | inhibition at 0.2 µM (human V2 receptor [3]) [%]
1 | O=C(Nc1ccc(C(=O)N2CCC3(CCCC3=NO)Cc3ccccc32)cc1)c1ccccc1-c1ccccc1 (centres unmarked) [Cpd 37, N-[4-(biphen-2-ylcarbonyl)amino-phenylcarbonyl]-2-hydroxyimino-spiro[cyclopentane-1,4′-benzo[b]azepane]] | 30 | 23 | 27 | 90 |  |  | 
2 | NN=C1CCCC12CCN(C(=O)c1ccc(NC(=O)c3cc(F)ccc3Cl)cc1)c1ccccc1C2 (centres unmarked) [Cpd 1, 2-aminoimino-N-[4-(2-chloro-5-fluoro-phenylcarbonyl)amino-phenylcarbonyl]-spiro[cyclopentane-1,4′-benzo[b]azepane]] | 10 | 3 | 23 | 54 |  |  | 
3 | O=C(Nc1ccc(C(=O)N2CC[C@@]3(CCCC3=NO)Cc3ccccc32)cc1)c1cc(F)ccc1Cl [Cpd 7, (R)—N-[4-(2-chloro-5-fluoro-phenylcarbonyl)amino-phenylcarbonyl]-2-hydroxyimino-spiro[cyclopentane-1,4′-benzo[b]azepane]] | 18 | 8 | 28 | 24 |  |  | 
4 | NC1CCCC12CCN(C(=O)c1ccc(NC(=O)c3ccccc3-c3ccccc3)cc1)c1ccccc1C2 (centres unmarked) [Cpd 39, 2-amino-N-[4-(biphen-2-ylcarbonyl)amino-phenylcarbonyl]-spiro[cyclopentane-1,4′-benzo[b]azepane]] |  | 80 | 110 | 690 | 730 |  | 
5 | O=C(NN=C1CCCC12CCN(C(=O)c1ccc(NC(=O)c3cc(F)ccc3Cl)cc1)c1ccccc1C2)c1cccnc1 (centres unmarked) [Cpd 4, N-[4-(2-chloro-5-fluoro-phenylcarbonyl)amino-phenylcarbonyl]-2-pyridin-3-ylcarbonylaminoimino-spiro[cyclopentane-1,4′-benzo[b]azepane]] | 20 | 12 | 62 | 43 |  |  | 
6 | O=C(Nc1ccc(C(=O)N2CCC3(CCCC3=NO)Cc3ccccc32)cc1)c1cc(F)ccc1Cl (centres unmarked) [Cpd 44, N-[4-(2-chloro-5-fluoro-phenylcarbonyl)amino-phenylcarbonyl]-2-hydroxyimino-spiro[cyclopentane-1,4′-benzo[b]azepane]] | 20 | 7 | 28 | 66 |  |  | 
7 | Cn1ccnc1C1=CCCC12CCN(C(=O)c1ccc(NC(=O)c3cc(F)ccc3Cl)cc1)c1ccccc1C2 (centres unmarked) [Cpd 5, N-[4-(2-chloro-5-fluoro-phenylcarbonyl)amino-phenylcarbonyl]-2-(1-methyl-1H-imidazol-2-yl)-spiro[cyclopent-2-ene-1,4′-benzo[b]azepane]] |  | 9 | 84 | 66 | 130 |  | 
8 | O=C(Nc1ccc(C(=O)N2CC[C@]3(CCCC3=NO)Cc3ccccc32)cc1)c1cc(F)ccc1Cl [Cpd 45, (S)—N-[4-(2-chloro-5-fluoro-phenylcarbonyl)amino-phenylcarbonyl]-2-hydroxyimino-spiro[cyclopentane-1,4′-benzo[b]azepane]] | 570 |  |  | 550 |  | 67 | 10
9 | NN=C1CCCC12CCN(C(=O)c1ccc(NC(=O)c3ccccc3-c3ccccc3)cc1)c1ccccc1C2 (centres unmarked) [Cpd 38, 2-aminoimino-N-[4-(biphen-2-ylcarbonyl)amino-phenylcarbonyl]-spiro[cyclopentane-1,4′-benzo[b]azepane]] | < 30 | 21 | 24 | 40 |  |  | 
10 | NCCON=C1CCCC12CCN(C(=O)c1ccc(NC(=O)c3cccc(F)c3)cc1)c1ccccc1C2 (centres unmarked) [Cpd 41, N-[4-(3-fluoro-phenylcarbonyl)amino-phenylcarbonyl]-2-(2-amino-ethoxy)imino-spiro[cyclopentane-1,4′-benzo[b]azepane]] |  | 8 |  | 700 | 20 |  | 55
11 | CN(C)N=C1CCCC12CCN(C(=O)c1ccc(NC(=O)c3cc(F)ccc3Cl)cc1)c1ccccc1C2 (centres unmarked) [Cpd 3, N-[4-(2-chloro-5-fluoro-phenylcarbonyl)amino-phenylcarbonyl]-2-dimethylaminoimino-spiro[cyclopentane-1,4′-benzo[b]azepane]] | 20 | 9 |  | 250 |  |  | 48
